{"source": "patent US20100151107A1", "about": "“EXTRACTION METHOD FOR THE CLASSIFIED EXTRACTION AND SEPARATION OF VEGETABLE COMPONENT MATERIALS, AND THE APPLICATION THEREOF” (priority 2006, published 2010)", "origin": "cited, not measured here", "key": {"[1]": {"system": "60 different human tumour-cell lines", "conditions": "60 different human tumour-cell lines (leukaemia, lung cancer, large intestine, melanoma, breast cancer)"}, "[2]": {"system": "isolated mouse mammary gland cells", "conditions": "MMOC-test; versus resveratrol isolated from red vine"}, "[3]": {"conditions": "in-vitro; against osteoporosis, arteriosclerosis, diseases of the coronary vessels, heart attack and stroke"}, "healthy cells": {"system": "healthy cells", "conditions": "all hitherto described in-vitro experiments"}, "[4]": {"conditions": "rats; dose 1.000 mg xanthohumol per kg body weight"}}, "data": [{"smiles": "COc1cc(O)c(CC=C(C)C)c(O)c1C(=O)/C=C/c1ccc(O)cc1", "note": "[Xanthohumol, xanthohumol]", "values": [{"measurement": "growth inhibiting and cytotoxic effect", "setting": "[1]", "value": "growth inhibiting and cytotoxic effect"}, {"measurement": "effectiveness relative to resveratrol", "setting": "[2]", "value": "more than 200 fold"}, {"measurement": "preventive effect", "setting": "[3]", "value": "preventive effect"}, {"measurement": "cytotoxic effect against healthy cells", "setting": "healthy cells", "value": "no cytotoxic effect"}, {"measurement": "toxic effect", "setting": "[4]", "value": "no toxic effect"}]}]}
